Measured values: PubChem BioAssay AID248 (DTP/NCI, 2004)
Inconclusive results and toxic doses are left out.

Test system: L1210 leukemia ip in BDF1 mice, survival T/C
Test: NCI In Vivo Anticancer Drug Screen. Data for tumor model L1210 Leukemia (intraperitoneal) in B6D2F1 (BDF1) mice
Conditions: higher = longer survival
Method in brief: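 Value reflects the ratio of survival in compound-treated mice to survival in vehicle-treated controls, with both groups carrying the same transplanted tumor.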

[1] = endpoint: mean survival time, dose: 100.0 mg/kg/injection, schedule: Q01DX009 (ip), vehicle: saline with Tween-80
[2] = endpoint: mean survival time, dose: 100.0 mg/kg/injection, schedule: Q04DX003 (ip), vehicle: saline with Tween-80
[3] = endpoint: mean survival time, dose: 200.0 mg/kg/injection, schedule: Q04DX003 (ip), vehicle: saline with Tween-80
[4] = endpoint: mean survival time, dose: 400.0 mg/kg/injection, schedule: Q04DX003 (ip), vehicle: saline with Tween-80

**Q.** How did the T/C (endpoint: mean survival time, dose: 25.0 mg/kg/injection, schedule: Q04DX003 (ip), vehicle: saline) turn out when C[C@H](CN1CC(=O)NC(=O)C1)N1CC(=O)NC(=O)C1 was run?
**A.** 124 % of control

**Q.** And the T/C (endpoint: mean survival time, dose: 25.0 mg/kg/injection, schedule: Q04DX003 (ip), vehicle: water)?
**A.** 104 % of control

**Q.** And the T/C (endpoint: mean survival time, dose: 50.0 mg/kg/injection, schedule: Q04DX003 (ip), vehicle: saline)?
**A.** 117 % of control

**Q.** And the T/C (endpoint: mean survival time, dose: 50.0 mg/kg/injection, schedule: Q04DX003 (ip), vehicle: water)?
**A.** 110 % of control

**Q.** What about the T/C (endpoint: mean survival time, dose: 100.0 mg/kg/injection, schedule: Q04DX003 (ip), vehicle: saline) of the same molecule?
**A.** 117 % of control

**Q.** What about the T/C (endpoint: mean survival time, dose: 200.0 mg/kg/injection, schedule: Q04DX003 (ip), vehicle: saline) of the same molecule?
**A.** 158 % of control

**Q.** And the T/C (endpoint: mean survival time, dose: 200.0 mg/kg/injection, schedule: Q04DX003 (ip), vehicle: water)?
**A.** 152 % of control

**Q.** What about the T/C (endpoint: mean survival time, dose: 400.0 mg/kg/injection, schedule: Q04DX003 (ip), vehicle: saline) of the same molecule?
**A.** 182 % of control

**Q.** And the T/C (endpoint: mean survival time, dose: 400.0 mg/kg/injection, schedule: Q04DX003 (ip), vehicle: water)?
**A.** 184 % of control

**Q.** And the T/C (endpoint: mean survival time, dose: 800.0 mg/kg/injection, schedule: Q04DX003 (ip), vehicle: saline)?
**A.** 187 % of control

**Q.** What about the T/C (endpoint: mean survival time, dose: 800.0 mg/kg/injection, schedule: Q04DX003 (ip), vehicle: water) of the same molecule?
**A.** 107 % of control

**Q.** What about the T/C (endpoint: median survival time, dose: 8.0 mg/kg/injection, schedule: Q03HX008 (ip), vehicle: saline) of the same molecule?
**A.** 153 % of control

**Q.** What about the T/C (endpoint: median survival time, dose: 8.0 mg/kg/injection, schedule: Q03HX016 (ip), vehicle: saline) of the same molecule?
**A.** 204 % of control

**Q.** What about the T/C (endpoint: median survival time, dose: 16.0 mg/kg/injection, schedule: Q01DX009 (sc), vehicle: saline) of the same molecule?
**A.** 152 % of control

**Q.** What about the T/C (endpoint: median survival time, dose: 16.0 mg/kg/injection, schedule: Q03HX008 (ip), vehicle: saline) of the same molecule?
**A.** 163 % of control

**Q.** And the T/C (endpoint: median survival time, dose: 16.0 mg/kg/injection, schedule: Q03HX016 (ip), vehicle: saline)?
**A.** 203 % of control

**Q.** What about the T/C (endpoint: median survival time, dose: 16.0 mg/kg/injection, schedule: Q03HX024 (ip), vehicle: saline) of the same molecule?
**A.** 98 % of control

**Q.** And the T/C (endpoint: median survival time, dose: 32.0 mg/kg/injection, schedule: Q01DX009 (sc), vehicle: saline)?
**A.** 156 % of control

**Q.** And the T/C (endpoint: median survival time, dose: 32.0 mg/kg/injection, schedule: Q03HX008 (ip), vehicle: saline)?
**A.** 160 % of control

**Q.** What about the T/C (endpoint: median survival time, dose: 32.0 mg/kg/injection, schedule: Q03HX024 (ip), vehicle: saline) of the same molecule?
**A.** 94 % of control

**Q.** And the T/C (endpoint: median survival time, dose: 64.0 mg/kg/injection, schedule: Q01DX001 (ip), vehicle: saline)?
**A.** 102 % of control

**Q.** And the T/C (endpoint: median survival time, dose: 64.0 mg/kg/injection, schedule: Q01DX009 (sc), vehicle: saline)?
**A.** 110 % of control

**Q.** And the T/C (endpoint: median survival time, dose: 64.0 mg/kg/injection, schedule: Q04DX003 (ip), vehicle: saline)?
**A.** 108 % of control

**Q.** And the T/C (endpoint: median survival time, dose: 64.0 mg/kg/injection, schedule: Q04DX003 (sc), vehicle: saline)?
**A.** 121 % of control

**Q.** And the T/C (endpoint: median survival time, dose: 64.0 mg/kg/injection, schedule: Q08DX002 (ip), vehicle: saline)?
**A.** 109 % of control

**Q.** What about the T/C (endpoint: median survival time, dose: 128.0 mg/kg/injection, schedule: Q01DX001 (ip), vehicle: saline) of the same molecule?
**A.** 107 % of control

**Q.** What about the T/C (endpoint: median survival time, dose: 128.0 mg/kg/injection, schedule: Q01DX009 (sc), vehicle: saline) of the same molecule?
**A.** 93 % of control

**Q.** What about the T/C (endpoint: median survival time, dose: 128.0 mg/kg/injection, schedule: Q03HX008 (ip), vehicle: saline) of the same molecule?
**A.** 152 % of control

**Q.** What about the T/C (endpoint: median survival time, dose: 128.0 mg/kg/injection, schedule: Q04DX003 (ip), vehicle: saline) of the same molecule?
**A.** 124 % of control

**Q.** What about the T/C (endpoint: median survival time, dose: 128.0 mg/kg/injection, schedule: Q08DX002 (ip), vehicle: saline) of the same molecule?
**A.** 107 % of control

**Q.** And the T/C (endpoint: median survival time, dose: 256.0 mg/kg/injection, schedule: Q01DX001 (ip), vehicle: saline)?
**A.** 109 % of control

**Q.** What about the T/C (endpoint: median survival time, dose: 256.0 mg/kg/injection, schedule: Q04DX003 (sc), vehicle: saline) of the same molecule?
**A.** 172 % of control

**Q.** What about the T/C (endpoint: median survival time, dose: 512.0 mg/kg/injection, schedule: Q01DX001 (ip), vehicle: saline) of the same molecule?
**A.** 120 % of control

**Q.** What about the T/C (endpoint: median survival time, dose: 512.0 mg/kg/injection, schedule: Q04DX003 (ip), vehicle: saline) of the same molecule?
**A.** 157 % of control

**Q.** What about the T/C (endpoint: median survival time, dose: 512.0 mg/kg/injection, schedule: Q04DX003 (sc), vehicle: saline) of the same molecule?
**A.** 202 % of control

**Q.** What about the T/C (endpoint: median survival time, dose: 512.0 mg/kg/injection, schedule: Q08DX002 (ip), vehicle: saline) of the same molecule?
**A.** 121 % of control

**Q.** And the T/C (endpoint: median survival time, dose: 1024.0 mg/kg/injection, schedule: Q04DX003 (ip), vehicle: saline)?
**A.** 193 % of control

**Q.** And the T/C (endpoint: median survival time, dose: 1024.0 mg/kg/injection, schedule: Q04DX003 (sc), vehicle: saline)?
**A.** 180 % of control

**Q.** What about the T/C (endpoint: median survival time, dose: 1024.0 mg/kg/injection, schedule: Q08DX002 (ip), vehicle: saline) of the same molecule?
**A.** 179 % of control

**Q.** Which results are given for CCN1CCC(CNc2cc(C)nc(/N=C(\N)Nc3cc(Cl)cc(Cl)c3)n2)C1 (stereo not given)?
**A.** T/C (endpoint: mean survival time, dose: 12.5 mg/kg/injection, schedule: Q04DX003 (ip), vehicle: Klucel (hydroxypropylcellulose) (HPC)): 102 % of control; T/C (endpoint: mean survival time, dose: 25.0 mg/kg/injection, schedule: Q04DX003 (ip), vehicle: Klucel (hydroxypropylcellulose) (HPC)): 105 % of control; T/C (endpoint: mean survival time, dose: 50.0 mg/kg/injection, schedule: Q04DX003 (ip), vehicle: Klucel (hydroxypropylcellulose) (HPC)): 105 % of control

**Q.** Which results are given for CC(=O)OC1CC2CC1C1C=CCC21 (stereo not given)?
**A.** T/C (endpoint: mean survival time, dose: 50.0 mg/kg/injection, schedule: Q01DX009 (ip), vehicle: saline with Tween-80): 88 % of control; T/C [1]: 86 % of control; T/C (endpoint: mean survival time, dose: 100.0 mg/kg/injection, schedule: Q04DX003 (ip), vehicle: saline sonified): 94 % of control; T/C (endpoint: mean survival time, dose: 200.0 mg/kg/injection, schedule: Q04DX003 (ip), vehicle: saline sonified): 89 % of control

**Q.** Which results are given for CCC(C)C1(C)OC1C(=O)OC (stereo not given)?
**A.** T/C [1]: 93 % of control; T/C [2]: 100 % of control; T/C (endpoint: mean survival time, dose: 200.0 mg/kg/injection, schedule: Q01DX009 (ip), vehicle: saline with Tween-80): 86 % of control; T/C [3]: 101 % of control; T/C [4]: 97 % of control

**Q.** Which T/C (endpoint: mean survival time, dose: 100.0 mg/kg/injection, schedule: Q04DX003 (ip), vehicle: Klucel (hydroxypropylcellulose) (HPC)) does the source give for O=S1(=O)C(Cc2ccccc2)CCC1Cc1ccccc1 (stereo not given) here?
**A.** 102 % of control

**Q.** And the T/C (endpoint: mean survival time, dose: 200.0 mg/kg/injection, schedule: Q04DX003 (ip), vehicle: Klucel (hydroxypropylcellulose) (HPC))?
**A.** 94 % of control

**Q.** And the T/C (endpoint: mean survival time, dose: 400.0 mg/kg/injection, schedule: Q04DX003 (ip), vehicle: Klucel (hydroxypropylcellulose) (HPC))?
**A.** 102 % of control

**Q.** How did the T/C (endpoint: mean survival time, dose: 100.0 mg/kg/injection, schedule: Q01DX001 (ip), vehicle: saline with Tween-80) turn out when COc1cccc2c1C(=O)c1c(O)c3c(c(O)c1C2=O)CC(O)(C(C)=O)CC3OC1CC2NC(=O)OC2C(C)O1 (stereo not given) was run?
**A.** 114 % of control

**Q.** Which T/C (endpoint: mean survival time, dose: 75.0 mg/kg/injection, schedule: Q01DX001 (ip), vehicle: saline) does the source give for C(#CCN1CCCCC1)CN1CCCCC1 here?
**A.** 105 % of control

**Q.** And the T/C (endpoint: mean survival time, dose: 150.0 mg/kg/injection, schedule: Q01DX001 (ip), vehicle: saline)?
**A.** 103 % of control

**Q.** What about the T/C (endpoint: mean survival time, dose: 300.0 mg/kg/injection, schedule: Q01DX001 (ip), vehicle: saline) of the same molecule?
**A.** 101 % of control

**Q.** Which T/C (endpoint: mean survival time, dose: 25.6 mg/kg/injection, schedule: Q04DX002 (ip), vehicle: saline with Tween-80) does the source give for C1COCCN1 here?
**A.** 101 % of control

**Q.** What about the T/C (endpoint: mean survival time, dose: 64.0 mg/kg/injection, schedule: Q04DX002 (ip), vehicle: saline with Tween-80) of the same molecule?
**A.** 101 % of control

**Q.** And the T/C [2]?
**A.** 98 % of control

**Q.** What about the T/C (endpoint: mean survival time, dose: 160.0 mg/kg/injection, schedule: Q04DX002 (ip), vehicle: saline with Tween-80) of the same molecule?
**A.** 101 % of control

**Q.** What about the T/C [3] of the same molecule?
**A.** 101 % of control

**Q.** And the T/C (endpoint: mean survival time, dose: 400.0 mg/kg/injection, schedule: Q04DX002 (ip), vehicle: saline with Tween-80)?
**A.** 101 % of control

**Q.** And the T/C [4]?
**A.** 95 % of control
